The values that follow come from patent US20120270237A9, “METHODS FOR THE IDENTIFICATION OF KINASE INTERACTING MOLECULES AND FOR THE PURIFICATION OF KINASE PROTEINS” (Cellzone AG, priority 2009, published 2012).

The target in test [1] is JNK2 (Homo sapiens, UniProt P45984). The test is described as follows: Kinobeads competition binding, L-363 cell lysate. Details: Identified kinases with CZC31326 from L-363 cell lysate; endogenous in cells; host or cells: L-363 (MG132-treated). The note with it: 10 μM free compound, L-363 lysate. The protocol:
(§1) To one aliquot of cell lysate 10 μM of the free compound (FIG. 3, CZC31326) was added and allowed to bind to proteins in the lysate. Then the affinity matrix with the immobilized compound was added to capture proteins that were not interacting with the previously added free compound. Beads were separated from the lysate and bead bound proteins were eluted in SDS sample buffer and subsequently separated by SDS-Polyacrylamide gel electrophoresis (FIG. 8). Suitable gel bands were cut out and subjected to in-gel proteolytic digestion with trypsin. The second lysate aliquot was processed identically, however no free compound was added (DMSO solvent control). Peptides originating from samples 1 and 2 were labeled with iTRAQ reagents (iTRAQ 114 and iTRAQ 117) and the combined samples were analyzed with a nano-flow liquid chromatography system coupled online to a tandem mass spectrometer (LC-MS/MS) experiment followed by iTRAQ reporter ion quantification in the MS/MS spectra as described in Example 2.
(§2) For this experiment the human plasma cell leukaemia line L-363 was used (German Collection of Microorganisms and Cell Cultures, DSMZ number ACC49, Braunschweig, Germany). Cells were treated for three hours with 20 μM of the proteasome inhibitor MG132 (Z-Leu-Leu-Leu-al, Sigma C2211) prior to cell harvesting.

In test [2] the target is IRE1 (Homo sapiens, UniProt O75460). The test is described as follows: Kinobeads competition binding, L-363 cell lysate. As to conditions: 10 μM free compound, L-363 lysate. Details: Identified kinases with CZC31326 from L-363 cell lysate; endogenous in cells; host or cells: L-363 (MG132-treated). The protocol:
as §1, §2

Test [3] addresses JAK1 (Homo sapiens, UniProt P23458). Kind of test: Kinobeads competition binding, L-363 cell lysate. Details: Identified kinases with CZC31326 from L-363 cell lysate; endogenous in cells; host or cells: L-363 (MG132-treated). The note with it: 10 μM free compound, L-363 lysate. The protocol:
as §1, §2

Test [4] addresses JAK2 (Homo sapiens, UniProt O60674). Kind of test: Kinobeads competition binding, L-363 cell lysate. The arrangement: Identified kinases with CZC31326 from L-363 cell lysate; endogenous in cells; host or cells: L-363 (MG132-treated). The note with it: 10 μM free compound, L-363 lysate. The protocol: as §1, §2
Test [5] deals with SYK (Homo sapiens, UniProt P43405). The test is described as follows: Kinobeads competition binding, HL60 cell lysate. The arrangement: capturing and identification of kinases from mixed HeLa placenta lysates; endogenous in cells. As to conditions: 10 μM free compound. The protocol:
To one aliquot of cell lysate 10 μM of the free compound (FIG. 3, CZC31326) was added and allowed to bind to proteins in the lysate. Then the affinity matrix with the immobilized compound (Example 1) was added to capture proteins that were not interacting with the previously added free compound. Beads were separated from the lysate and bead bound proteins were eluted in SDS sample buffer and subsequently separated by SDS-Polyacrylamide gel electrophoresis (FIG. 4). Suitable gel bands were cut out and subjected to in-gel proteolytic digestion with trypsin. The second lysate aliquot was processed identically, however no free compound was added (DMSO solvent control). Peptides originating from samples 1 and 2 were labeled with iTRAQ reagents (iTRAQ 114 and iTRAQ 117) and the combined samples were analyzed with a nano-flow liquid chromatography system coupled online to a tandem mass spectrometer (LC-MS/MS) experiment followed by iTRAQ reporter ion quantification in the MS/MS spectra (Ross et al., 2004. Mol. Cell. Proteomics 3(12):1154-1169). […] The iTRAQ reagents are a set of multiplexed, amine-specific, stable isotope reagents that can label peptides on amino groups in up to four different biological samples enabling simultaneous identification and quantitation of peptides. […]

JAK1, sequence (P23458 whole entry): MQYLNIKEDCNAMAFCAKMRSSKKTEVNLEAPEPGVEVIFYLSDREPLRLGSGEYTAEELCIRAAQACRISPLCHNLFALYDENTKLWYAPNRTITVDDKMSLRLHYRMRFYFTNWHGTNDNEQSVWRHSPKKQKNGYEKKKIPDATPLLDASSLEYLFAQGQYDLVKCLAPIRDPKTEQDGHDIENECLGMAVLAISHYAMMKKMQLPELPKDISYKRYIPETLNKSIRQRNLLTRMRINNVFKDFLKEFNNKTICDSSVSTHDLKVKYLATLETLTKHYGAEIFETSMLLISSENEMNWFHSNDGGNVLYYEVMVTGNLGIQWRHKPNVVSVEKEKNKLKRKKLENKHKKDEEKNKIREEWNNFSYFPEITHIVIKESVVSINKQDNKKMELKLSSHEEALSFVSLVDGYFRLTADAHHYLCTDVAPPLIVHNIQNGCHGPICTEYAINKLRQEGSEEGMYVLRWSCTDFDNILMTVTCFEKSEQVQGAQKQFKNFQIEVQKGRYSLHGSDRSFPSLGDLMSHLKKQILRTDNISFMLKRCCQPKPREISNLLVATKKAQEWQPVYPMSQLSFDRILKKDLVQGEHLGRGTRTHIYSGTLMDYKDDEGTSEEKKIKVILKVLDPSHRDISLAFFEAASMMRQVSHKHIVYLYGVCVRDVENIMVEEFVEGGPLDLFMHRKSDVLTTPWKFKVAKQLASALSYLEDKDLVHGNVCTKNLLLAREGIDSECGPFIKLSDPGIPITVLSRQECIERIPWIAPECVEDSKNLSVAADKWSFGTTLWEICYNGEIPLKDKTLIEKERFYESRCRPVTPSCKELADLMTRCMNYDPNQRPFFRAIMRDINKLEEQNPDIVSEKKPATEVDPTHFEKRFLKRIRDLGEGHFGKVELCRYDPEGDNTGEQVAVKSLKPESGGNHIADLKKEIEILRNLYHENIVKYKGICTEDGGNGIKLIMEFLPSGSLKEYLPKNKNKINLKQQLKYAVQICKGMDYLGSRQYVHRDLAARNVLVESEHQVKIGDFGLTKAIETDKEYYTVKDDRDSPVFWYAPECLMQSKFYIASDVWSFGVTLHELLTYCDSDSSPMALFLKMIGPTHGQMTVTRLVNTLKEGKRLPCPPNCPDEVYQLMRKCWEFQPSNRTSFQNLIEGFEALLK
IRE1, sequence (O75460 19-977): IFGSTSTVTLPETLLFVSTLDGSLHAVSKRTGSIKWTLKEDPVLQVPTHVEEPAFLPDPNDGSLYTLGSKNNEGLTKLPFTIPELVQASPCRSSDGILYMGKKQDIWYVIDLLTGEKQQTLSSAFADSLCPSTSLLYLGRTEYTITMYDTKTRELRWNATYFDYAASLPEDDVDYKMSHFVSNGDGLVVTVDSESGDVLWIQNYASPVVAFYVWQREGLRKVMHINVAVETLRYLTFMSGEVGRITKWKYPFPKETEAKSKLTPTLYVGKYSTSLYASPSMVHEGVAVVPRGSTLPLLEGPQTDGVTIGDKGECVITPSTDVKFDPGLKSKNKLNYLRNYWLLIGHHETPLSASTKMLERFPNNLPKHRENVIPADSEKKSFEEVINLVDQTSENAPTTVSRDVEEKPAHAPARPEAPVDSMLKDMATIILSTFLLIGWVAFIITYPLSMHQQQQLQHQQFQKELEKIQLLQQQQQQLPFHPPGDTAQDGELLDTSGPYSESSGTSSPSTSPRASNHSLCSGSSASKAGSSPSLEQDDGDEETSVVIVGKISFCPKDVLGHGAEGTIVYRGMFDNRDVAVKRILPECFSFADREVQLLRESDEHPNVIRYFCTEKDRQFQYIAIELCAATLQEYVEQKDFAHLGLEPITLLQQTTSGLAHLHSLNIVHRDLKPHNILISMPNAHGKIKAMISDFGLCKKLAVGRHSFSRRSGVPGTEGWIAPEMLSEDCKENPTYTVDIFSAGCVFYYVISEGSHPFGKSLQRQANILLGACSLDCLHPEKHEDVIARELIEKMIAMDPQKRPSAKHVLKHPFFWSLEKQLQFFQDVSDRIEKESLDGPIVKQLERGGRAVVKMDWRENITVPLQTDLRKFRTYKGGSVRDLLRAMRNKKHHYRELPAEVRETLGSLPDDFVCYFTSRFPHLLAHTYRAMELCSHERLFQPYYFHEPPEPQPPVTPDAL
JNK2, sequence (P45984 whole entry): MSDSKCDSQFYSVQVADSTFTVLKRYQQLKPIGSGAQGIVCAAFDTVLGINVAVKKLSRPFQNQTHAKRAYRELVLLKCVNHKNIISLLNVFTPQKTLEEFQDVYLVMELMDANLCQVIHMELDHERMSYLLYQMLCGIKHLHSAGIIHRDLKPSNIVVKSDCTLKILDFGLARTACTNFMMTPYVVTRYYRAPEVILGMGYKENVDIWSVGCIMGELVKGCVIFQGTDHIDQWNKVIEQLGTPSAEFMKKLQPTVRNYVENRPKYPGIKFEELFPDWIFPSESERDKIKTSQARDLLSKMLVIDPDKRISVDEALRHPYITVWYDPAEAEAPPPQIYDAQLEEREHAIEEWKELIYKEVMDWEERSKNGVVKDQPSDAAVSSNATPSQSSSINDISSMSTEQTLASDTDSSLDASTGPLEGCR
JAK2, sequence (O60674 whole entry): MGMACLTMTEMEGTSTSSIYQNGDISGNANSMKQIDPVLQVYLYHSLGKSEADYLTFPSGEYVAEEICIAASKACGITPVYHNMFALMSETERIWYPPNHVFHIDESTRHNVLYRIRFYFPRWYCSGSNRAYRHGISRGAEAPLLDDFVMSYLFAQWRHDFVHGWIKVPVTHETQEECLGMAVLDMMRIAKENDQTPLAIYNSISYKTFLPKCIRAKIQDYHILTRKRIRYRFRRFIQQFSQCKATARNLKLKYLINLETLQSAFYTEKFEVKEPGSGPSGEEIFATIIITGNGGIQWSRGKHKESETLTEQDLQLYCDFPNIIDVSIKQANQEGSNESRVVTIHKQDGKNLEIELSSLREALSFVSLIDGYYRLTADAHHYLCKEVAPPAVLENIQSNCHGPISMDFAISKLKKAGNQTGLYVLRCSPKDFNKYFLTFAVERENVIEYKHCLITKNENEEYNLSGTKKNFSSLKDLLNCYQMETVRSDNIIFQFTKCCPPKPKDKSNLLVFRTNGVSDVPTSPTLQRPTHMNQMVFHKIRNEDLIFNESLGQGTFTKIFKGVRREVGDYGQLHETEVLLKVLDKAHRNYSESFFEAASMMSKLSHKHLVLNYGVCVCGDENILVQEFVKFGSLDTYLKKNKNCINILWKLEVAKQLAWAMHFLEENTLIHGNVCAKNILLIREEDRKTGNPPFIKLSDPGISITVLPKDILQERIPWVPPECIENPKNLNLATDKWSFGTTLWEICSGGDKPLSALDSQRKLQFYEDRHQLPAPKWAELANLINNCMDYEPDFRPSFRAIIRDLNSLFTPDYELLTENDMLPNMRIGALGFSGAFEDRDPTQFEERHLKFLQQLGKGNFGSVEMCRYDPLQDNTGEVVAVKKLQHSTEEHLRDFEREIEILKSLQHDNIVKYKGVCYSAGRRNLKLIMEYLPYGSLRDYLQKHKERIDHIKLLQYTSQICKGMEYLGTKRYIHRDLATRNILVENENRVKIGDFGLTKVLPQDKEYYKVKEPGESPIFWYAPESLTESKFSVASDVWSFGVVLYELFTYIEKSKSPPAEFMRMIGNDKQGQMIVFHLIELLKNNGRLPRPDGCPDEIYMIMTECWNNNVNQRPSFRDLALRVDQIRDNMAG

Broadly, the inhibition is how much of the control response was suppressed. A higher inhibition goes with strong suppression. For `CS(=O)(=O)Nc1ccccc1Nc1nc(Nc2cccc(OCCN)c2)ncc1Cl` [CZC31326, N-(2-(2-(3-(2-aminoethoxy)phenylamino)-5-chloropyrimidin-4-ylamino)phenyl)methanesulfonamide], the Competition % worked out at 88% in test [1], 97.2% in test [3], 96.1% in test [4] and 95.6% in test [5]. The inhibition at 10 µM in test [2] was 97.9%.
